Results: ChEMBL document CHEMBL3259726, “Identification of a new series of potent diphenol HSP90 inhibitors by fragment merging and structure-based optimization” (Bioorg Med Chem Lett, 2014)

Experiments:
[1] = target: T1, Heat shock protein HSP 90-alpha (Homo sapiens, UniProt P07900); assay: biochemical
Description: Displacement of GM-BODIPY from human full length HSP90 alpha expressed in baculovirus-infected Sf9 cells after 16 hrs by fluorescence polarization assay

[2] = Retention time of the compound; format: physicochemical
[3] = target: T1, Heat shock protein HSP 90-alpha; assay: Displacement of GM-BODIPY from human full length HSP90 alpha expressed in baculovirus-infected Sf9 cells at 5 uM after 16 hrs by fluorescence polarization assay
CYP2D6 = CYP2D6 (Homo sapiens, UniProt P10635); assay: Inhibition of CYP2D6 in human liver microsomes using dextromethorphan as substrate at 10 uM; format: ADME; conditions: probe dextromethorphan
CYP3A4 = CYP3A4 (Homo sapiens, UniProt P08684); assay: Inhibition of CYP3A4 in human liver microsomes using midazolam or testosterone as substrate at 10 uM; format: ADME; conditions: probe midazolam or testosterone
CYP1A2 = target: T2, CYP1A2 (Homo sapiens, UniProt P05177); assay: Inhibition of CYP1A2 in human liver microsomes using phenacetin as substrate at 10 uM; format: ADME; conditions: probe phenacetin
T2 sequence (P05177 whole entry): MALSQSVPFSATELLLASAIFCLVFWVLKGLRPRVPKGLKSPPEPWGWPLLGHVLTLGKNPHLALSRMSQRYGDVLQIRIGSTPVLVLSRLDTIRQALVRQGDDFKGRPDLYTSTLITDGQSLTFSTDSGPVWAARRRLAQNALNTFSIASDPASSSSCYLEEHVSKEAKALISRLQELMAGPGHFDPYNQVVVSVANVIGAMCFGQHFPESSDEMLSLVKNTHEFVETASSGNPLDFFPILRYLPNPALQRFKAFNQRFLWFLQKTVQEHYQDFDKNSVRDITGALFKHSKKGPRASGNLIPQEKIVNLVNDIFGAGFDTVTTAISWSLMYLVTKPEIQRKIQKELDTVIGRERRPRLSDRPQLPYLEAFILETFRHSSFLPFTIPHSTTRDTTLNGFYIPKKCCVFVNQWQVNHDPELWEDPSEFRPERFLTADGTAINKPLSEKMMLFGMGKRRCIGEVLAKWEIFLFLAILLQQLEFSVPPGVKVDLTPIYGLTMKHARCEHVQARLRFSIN

CYP2C9 = CYP2C9 (Homo sapiens, UniProt P11712); assay: Inhibition of CYP2C9 in human liver microsomes using diclofenac as substrate at 10 uM; format: ADME; conditions: probe diclofenac
CYP2C19 = CYP2C19 (Homo sapiens, UniProt P33261); assay: Inhibition of CYP2C19 in human liver microsomes using mephenytoin as substrate at 10 uM; format: ADME; conditions: probe mephenytoin
[4] = Intrinsic clearance in human liver microsomes at 1 uM after 5 mins by LC-MS/MS analysis; format: ADME; conditions: read-out: CLH
[5] = Intrinsic clearance in rat liver microsomes at 1 uM after 5 mins by LC-MS/MS analysis; format: ADME; conditions: read-out: CLH
Cytochrome P450 2C19 = Cytochrome P450 2C19 (Homo sapiens, UniProt P33261); assay: Time-dependent inhibition of CYP2C19 in human liver microsomes using mephenytoin as substrate at 10 uM; format: ADME; conditions: TDE = time-dependent effect
[6] = Growth inhibition of human NCI-H3122 cells after 72 hrs by spectrophotometer analysis; format: functional; conditions: NCI-H3122, 72 h
A549 = assay: Growth inhibition of human A549 cells after 72 hrs by spectrophotometer analysis; format: functional; conditions: A549, 72 h
HCT-116 = assay: Growth inhibition of human HCT116 cells after 72 hrs by spectrophotometer analysis; format: functional; conditions: HCT-116, 72 h
[7] = Growth inhibition of human BT474 cells after 72 hrs by spectrophotometer analysis; format: functional; conditions: BT-474, 72 h
[8] = target: T1, Heat shock protein HSP 90-alpha; assay: Displacement of GM-BODIPY from human full length HSP90 alpha expressed in baculovirus-infected Sf9 cells at 1 uM after 16 hrs by fluorescence polarization assay

CYP2C19, sequence (P33261 whole entry): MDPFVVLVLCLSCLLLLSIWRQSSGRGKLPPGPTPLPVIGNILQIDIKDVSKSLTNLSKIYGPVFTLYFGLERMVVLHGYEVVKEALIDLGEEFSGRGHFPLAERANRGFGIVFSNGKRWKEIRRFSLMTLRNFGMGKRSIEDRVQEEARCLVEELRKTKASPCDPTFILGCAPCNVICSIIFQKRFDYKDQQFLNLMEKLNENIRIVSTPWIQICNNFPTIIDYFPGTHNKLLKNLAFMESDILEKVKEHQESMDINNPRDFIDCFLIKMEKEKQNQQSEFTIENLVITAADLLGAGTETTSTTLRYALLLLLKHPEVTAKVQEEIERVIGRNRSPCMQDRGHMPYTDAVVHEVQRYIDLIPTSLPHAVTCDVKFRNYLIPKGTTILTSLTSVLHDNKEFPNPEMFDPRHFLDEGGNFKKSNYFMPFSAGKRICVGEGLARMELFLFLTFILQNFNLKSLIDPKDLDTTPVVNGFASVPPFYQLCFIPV
CYP2D6, sequence (P10635 whole entry): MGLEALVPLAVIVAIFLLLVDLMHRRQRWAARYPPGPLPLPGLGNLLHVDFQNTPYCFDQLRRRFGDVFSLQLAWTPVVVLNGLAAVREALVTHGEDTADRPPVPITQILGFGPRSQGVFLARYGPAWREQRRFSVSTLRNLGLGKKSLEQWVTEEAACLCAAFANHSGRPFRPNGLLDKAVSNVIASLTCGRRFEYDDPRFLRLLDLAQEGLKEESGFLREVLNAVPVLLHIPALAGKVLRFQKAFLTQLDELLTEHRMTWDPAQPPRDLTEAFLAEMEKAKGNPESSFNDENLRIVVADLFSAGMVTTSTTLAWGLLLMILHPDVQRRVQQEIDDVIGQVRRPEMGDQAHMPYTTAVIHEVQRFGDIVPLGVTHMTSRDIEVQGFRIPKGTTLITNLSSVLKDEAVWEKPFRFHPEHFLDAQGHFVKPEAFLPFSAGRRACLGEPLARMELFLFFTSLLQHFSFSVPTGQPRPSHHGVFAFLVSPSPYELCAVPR
CYP3A4, sequence (P08684 whole entry): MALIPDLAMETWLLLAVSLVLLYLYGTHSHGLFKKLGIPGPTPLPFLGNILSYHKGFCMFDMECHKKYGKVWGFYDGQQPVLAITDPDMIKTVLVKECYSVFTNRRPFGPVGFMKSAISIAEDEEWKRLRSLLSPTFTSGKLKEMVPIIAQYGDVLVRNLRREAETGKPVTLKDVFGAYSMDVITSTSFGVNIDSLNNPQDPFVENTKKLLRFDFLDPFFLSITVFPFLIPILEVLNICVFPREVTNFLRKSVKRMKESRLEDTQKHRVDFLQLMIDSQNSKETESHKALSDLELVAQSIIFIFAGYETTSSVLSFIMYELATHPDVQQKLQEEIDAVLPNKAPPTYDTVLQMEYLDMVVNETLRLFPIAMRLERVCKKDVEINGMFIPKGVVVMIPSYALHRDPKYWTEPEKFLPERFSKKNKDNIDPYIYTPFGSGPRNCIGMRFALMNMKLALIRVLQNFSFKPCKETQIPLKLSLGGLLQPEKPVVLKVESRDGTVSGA
CYP2C9, sequence (P11712 whole entry): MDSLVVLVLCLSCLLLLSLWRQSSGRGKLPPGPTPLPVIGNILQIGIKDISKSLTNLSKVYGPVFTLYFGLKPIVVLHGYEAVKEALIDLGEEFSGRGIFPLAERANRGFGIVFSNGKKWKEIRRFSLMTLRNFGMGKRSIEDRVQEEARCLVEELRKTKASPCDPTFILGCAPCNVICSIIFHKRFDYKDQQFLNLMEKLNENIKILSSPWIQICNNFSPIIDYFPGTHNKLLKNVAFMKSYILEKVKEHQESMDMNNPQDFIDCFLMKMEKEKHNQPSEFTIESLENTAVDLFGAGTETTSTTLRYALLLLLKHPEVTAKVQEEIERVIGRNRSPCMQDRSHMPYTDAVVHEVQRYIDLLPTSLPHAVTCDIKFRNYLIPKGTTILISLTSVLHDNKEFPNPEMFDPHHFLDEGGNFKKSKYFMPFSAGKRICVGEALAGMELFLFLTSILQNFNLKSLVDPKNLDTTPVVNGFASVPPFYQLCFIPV
Cytochrome P450 2C19, sequence (P33261 whole entry): as the sequence (P33261 whole entry) above

Compound | IC50 [1] [µM] | Retention_time [2] [min] | inhibition at 10 µM (CYP2D6) [%] | inhibition at 10 µM (CYP3A4) [%] | inhibition at 10 µM (CYP1A2) [%] | inhibition at 10 µM (CYP2C9) [%] | inhibition at 10 µM (CYP2C19) [%] | microsomal CLint at 1 µM [5] [µL/min/mg] | other results
COc1ccc2c(c1)c(CCN)cn2-c1cc(C(=O)N2Cc3ccccc3C2)c(O)cc1O | 1.5 | 2.69 |  |  |  |  |  |  | 
O=C(c1cc(-n2ccc3ccccc32)c(O)cc1O)N1CCc2sccc2C1 | 0.33 | 3.45 |  |  |  |  |  |  | 
CN1CCN(C(=O)c2cc(-c3nnc4ccc(Br)cn34)c(O)cc2O)CC1 |  | 1.86 |  |  |  |  |  |  | inhibition [3]: 8.8%
O=C(c1cc(-n2ccc3ccccc32)c(O)cc1O)N1CCc2ccccc2C1 | 0.13 | 3.54 |  |  |  |  |  |  | 
Cc1ccc(Nc2cc(C(=O)N3Cc4ccccc4C3)c(O)cc2O)cc1 | 0.071 | 3.29 | 7 | 38 | 61 | 75 | 58 |  | 
COC(=O)c1cccc2c1ccn2-c1cc(C(=O)N2Cc3ccccc3C2)c(O)cc1O | 0.13 | 3.32 |  |  |  |  |  |  | 
O=C(c1cc(Nc2ccccc2)c(O)cc1O)N1Cc2ccccc2C1 | 0.021 | 3.12 | 22 | 19 | 72 | 68 | 52 | 12 | microsomal CLint at 1 µM [4]: 2 µL/min/mg
O=C(c1cc(-n2ccc3cnccc32)c(O)cc1O)N1Cc2ccccc2C1 | 0.25 | 2.45 |  |  |  |  |  |  | 
O=C(c1cc(-n2ccc3ncccc32)c(O)cc1O)N1Cc2ccccc2C1 | 0.13 | 2.4 |  |  |  |  |  |  | 
O=C(c1cc(-n2ccc3c([N+](=O)[O-])cccc32)c(O)cc1O)N1Cc2ccccc2C1 | 0.039 | 3.45 | 50 | 8 | 47 | 74 | 89 | 6 | microsomal CLint at 1 µM [4]: 22 µL/min/mg; inhibition (INH) (Cytochrome P450 2C19): tde
O=C(c1cc(-n2ccc3ccccc32)c(O)cc1O)N1Cc2ccccc2C1 | 0.038 | 3.56 | 14 | 17 | 52 | 73 | 60 | 25 | GI50 [6]: 7.53 µM; microsomal CLint at 1 µM [4]: 13 µL/min/mg; GI50 (A549): 14.3 µM; GI50 (HCT-116): 10.1 µM; GI50 [7]: 7.25 µM
COc1ccc2c(c1)c(CCNC(C)=O)cn2-c1cc(C(=O)N2Cc3ccccc3C2)c(O)cc1O |  | 3.04 |  |  |  |  |  |  | inhibition [8]: 56.9%
CNC(=O)c1cccc2c1ccn2-c1cc(C(=O)N2Cc3ccccc3C2)c(O)cc1O | 0.62 | 2.74 |  |  |  |  |  |  | 
O=C(O)Cc1cn(-c2cc(C(=O)N3Cc4ccccc4C3)c(O)cc2O)c2ccccc12 |  | 2.97 |  |  |  |  |  |  | inhibition [8]: 14.1%
O=C(c1cc(-n2ccc3c(Br)cccc32)c(O)cc1O)N1Cc2ccccc2C1 | 0.07 | 3.8 | 19 | 22 | 34 | 54 | 70 | 49 | GI50 [6]: 9.67 µM; GI50 (A549): 21 µM; GI50 (HCT-116): 12.3 µM; GI50 [7]: 8.52 µM
O=C(c1cc(-n2ccc3cc(Br)ccc32)c(O)cc1O)N1Cc2ccccc2C1 | 0.078 | 3.8 | 32 | 13 | 48 | 78 | 71 | 16 | microsomal CLint at 1 µM [4]: 18 µL/min/mg
Cc1ccc2c(ccn2-c2cc(C(=O)N3Cc4ccccc4C3)c(O)cc2O)c1 | 0.038 | 3.68 | 7 | 4 | 28 | 68 | 63 | 42 | GI50 [6]: 7.53 µM; GI50 (A549): 11.1 µM; GI50 (HCT-116): 8.6 µM; GI50 [7]: 7.07 µM
O=C(c1cc(Nc2ccc(Cl)cc2Cl)c(O)cc1O)N1Cc2ccccc2C1 | 0.19 | 3.87 | 5 | 33 | 40 | 73 | 23 | 16 | GI50 [6]: 10.1 µM; GI50 (A549): 24.2 µM; GI50 (HCT-116): 10.6 µM; GI50 [7]: 6.31 µM
O=C(c1cc(-c2nnc3ccc(Br)cn23)c(O)cc1O)N1CCc2ccccc2C1 |  | 2.76 |  |  |  |  |  |  | inhibition [3]: 18.7%
CN1CCN(C(=O)c2cc(-n3ccc4ccccc43)c(O)cc2O)CC1 | 0.63 | 2.35 |  |  |  |  |  |  | 
